Measurements as given in patent US6610540B1, “Low oxygen culturing of central nervous system progenitor cells” (California Institute of Technology, priority 1998, dated 2003).

Test system: E12 mesencephalic precursor cultures
Experiment: Dopaminergic / neuronal subtype differentiation of expanded mesencephalic precursor cultures (TH+ cell counts by immunohistochemistry)
Assay type: cell-based, rat
Conditions: under both oxygen conditions
Source text: Culture of CNS Stem Cells. Animals were housed and treated following NIH guidelines. Cells dissected from rat embryonic lateral ganglionic eminence (E14) or mesencephalon (E12) were mechanically dissociated, plated on plastic 24-well plates (Costar) or 12 mm glass cover slips (Carolina Biologicals) precoated with polyornithine/fibronectin, and grown in defined medium with bFGF (Studer et al., 1998; Johe et al., 1996). In general, bFGF was withdrawn from the medium after 4-6 days of culture. Clonal assays were carried out in plastic 48-well plates (Costar). In some studies, recombinant human (rh)EPO, rhVEGF165 or recombinant mouse (rm)FGF8b, or their neutralizing antibodies (all from R&D Systems) were added to cultures at the following concentrations: EPO 0.5 U/ml, EPO neutralizing antibody 10 μg/ml, FGF8 250 ng/ml, FGF8b neutralizing antibody 5 μg/ml, VEGF 50 ng/ml, VEGF neutralizing antibody 0.5 μg/ml. […]
Immunohistochemistry. […] Appropriate fluorescence-tagged (Jackson Immunoresearch) or biotinylated (Vector Laboratories) secondary antibodies followed by metal-enhanced DAB reaction (Pierce) were used for visualization.
Cell Counts and Statistical Procedures. Uniform random sampling procedures were used for cell counts and quantified using the fractionator technique (Gundersen, et al., 1988). […] Data are expressed as mean±SEM.

sonic hedgehog
effect on expanded mesencephalic precursors (dopaminergic neuron differentiation): no effect
